Test results published in PubChem BioAssay (NCI).
Where “and” joins values, the source holds several entries; their conditions need not be identical. Identical values can stand only once.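 These data come from cells grown in 96-well plates and exposed to compound for 48 hours at five concentrations. GI50: concentration for 50% inhibition of growth. TGI: concentration producing complete growth inhibition.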

Experiments:
Experiment in all cases: DTP human tumour cell line panel, 48 h
[1] = tested on: RPMI-8226 leukemia
[2] = tested on: HT29 colon
[3] = tested on: SNB-75 CNS
[4] = tested on: NCI-H226 lung
[5] = tested on: EKVX NSCLC
[6] = tested on: TK-10 renal
[7] = tested on: T-47D breast
[8] = tested on: M14 melanoma
[9] = tested on: NCI-H522 lung
[10] = tested on: MOLT-4 leukemia

SMILES | TGI [1] | TGI [2] | TGI [3] | TGI [4] | TGI [5] | TGI [6] | TGI [7] [µM] | TGI [8] | TGI [9] | TGI [10] [µM] | GI50 [5] | GI50 [6] | GI50 [8]
C=C(C)C12CC(COC(=O)c3ccccc3)C34OC5(OC1C3C1OC1(CO)C(O)C1(O)C(OC(=O)c3ccccc3)C(C)C(C(C)CCCCCCC5O)C14)O2 (stereo not drawn) | > 75.8 µM | 54.7 µM | > 100 µM | > 100 µM | > 100 µM | 81.2 µM | > 100 | > 100 µM | > 100 µM |  |  |  | 
Cc1nc(-c2ccc([N+](=O)[O-])cc2)cn2c1nc1ccccc12 | > 100 µM | > 100 µM | 69 µM | > 100 µM | > 100 µM | > 100 µM | > 100 | > 100 µM |  | > 100 |  |  | 
CC(C)=CCOC(=O)C(C)=[N+]=[N-] | > 100 µM | > 100 µM | > 100 µM | > 100 µM | > 100 µM | > 100 µM | > 100 |  | > 100 µM | > 100 |  |  | 
Cc1cc(N(CCC#N)CCC#N)ccc1/C=N/NC(=O)c1cc(Cl)ccc1O |  | > 100 µM | > 100 µM | > 100 µM | > 100 µM | > 100 µM | > 100 | > 100 µM | > 100 µM | > 100 |  |  | 
CCN(CC)CCc1c2c(nc3ccccc13)C(=O)c1cccnc1C2=O | 6.43 µM | 11.1 µM | 16.7 µM | 18.2 µM | 13.7 µM | 12.6 µM | 5.31 | 1.73 µM | 6.46 µM |  |  |  | 
c1ccc2c(c1)OC(N1CCCC1)c1cnc(N3CCCC3)nc1-2 (stereo not drawn) | 45.8 µM | > 100 µM | 57.1 µM | > 100 µM | 58.5 µM | > 100 µM | 93.3 | > 100 µM |  | 70.5 |  |  | 
NC(N)=NS(=O)(=O)c1ccc(NCc2c3ccccc3[n+]([O-])c3ccccc23)cc1 | 74.3 µM | > 100 µM | 84.8 µM | 72.8 µM | > 100 µM | > 100 µM |  | > 100 µM | > 100 µM | 43.8 |  |  | 
O=C(O)CSc1nnc(COc2ccc(Cl)cc2)n1-c1ccccc1 |  | > 100 µM | > 100 µM | > 100 µM | > 100 µM | > 100 µM | > 100 | > 100 µM | > 100 µM | > 100 |  |  | 
Cc1nc2c(sc(=S)n2-c2ccccc2)c2nc3ncccc3n12 | > 100 µM | > 100 µM | 64.5 µM |  | > 100 µM | > 100 µM | > 100 | > 100 µM | > 100 µM | > 100 |  |  | 
Cc1ccc(-c2c(C#N)c(-c3ccccc3)n(NS(=O)(=O)c3ccccc3)c(=O)c2C#N)cc1 | 55.3 µM | > 100 µM | > 100 µM | > 100 µM | > 100 µM | > 100 µM |  | > 100 µM | > 100 µM | 72.6 |  |  | 
CC(=O)OCC1OC(OC(C)(C)CC/C=C(\C)[C@@H]2C/C=C(\C)CC/C=C(\C)CC2)C(O)C(O)C1OC(C)=O (stereo partly drawn) | 70.6 µM and > 100 µM | > 55.5 µM and 28.1 µM | > 100 µM and 31.8 µM | > 100 µM and 16.2 µM | > 100 µM and 37.3 µM | > 100 µM and 38.3 µM |  | > 100 µM and 47.8 µM | 28.8 µM and 37.4 µM | 49.1 | 43.6 µM and 19 µM | > 100 µM and 20.6 µM | 60 µM and 19.7 µM
CCOC(=O)C1Cc2[nH]c3ccccc3c2C(C)C1C (stereo not drawn) |  |  | 34.4 µM | 25.3 µM | 31.2 µM | 76 µM |  | 30.7 µM | 26.6 µM | 42 |  |  | 
CCCCN1C(=O)CC2[C@@H]3CCc4cc(OC(C)=O)ccc4C3CC[C@]2(C)C1=O (stereo partly drawn) | > 10 µM | > 10 µM |  | > 10 µM | > 10 µM | > 10 µM | > 10 | > 10 µM |  | > 10 |  |  | 
CC(C)(N=NC(C)(C)C(=O)NCCO)C(=O)NCCO | > 100 µM | > 100 µM |  | > 100 µM | > 100 µM | > 100 µM | > 100 | > 100 µM | > 100 µM | > 100 |  |  | 
O=C(CN1c2ccccc2Sc2ccccc21)N1CCNCC1 | > 100 µM | > 100 µM | > 100 µM | > 100 µM | > 100 µM | > 100 µM | > 100 | > 100 µM |  | > 100 |  |  | 
CCOC(=O)CNC(=O)C(CSCc1ccc(Br)cc1)NC(=O)CCC(N)C(=O)OCC (stereo not drawn) | > 50 µM | > 50 µM | > 50 µM |  | > 50 µM |  |  | > 50 µM | > 50 µM | > 50 |  |  | 
CCN1CC2=C(NC(=S)NC2c2ccc(Cl)cc2)/C(=C/c2ccc(Cl)cc2)C1 (stereo not drawn) | 90.9 µM | > 100 µM | > 100 µM | > 100 µM | > 100 µM | > 100 µM |  | > 100 µM | > 100 µM | 79.2 |  |  | 
Nc1cc(CO)cc(Nc2nc3ccc(Cl)cc3c3[nH]c4ccccc4c23)c1 | 9.78 µM | 11.7 µM |  |  | 15.1 µM | 21.3 µM | 20.8 | 16.7 µM | 12.7 µM | 32.2 |  |  | 
COc1ccc(C(C#N)NNC(=O)c2ccccc2O)cc1OC (stereo not drawn) | > 100 µM | > 100 µM | > 100 µM | 22.4 µM |  | > 100 µM |  | 46.7 µM | 30.1 µM | > 100 |  |  | 
OCCCCCNc1c2ccccc2nc2ccccc12 | 33.2 µM | 20.7 µM | 12.5 µM |  | 17.5 µM | 20.3 µM | 8.38 | 6.91 µM | 10.2 µM | > 63.3 |  |  | 
CCCc1cc(=O)c2c(C)c3[nH]c4ccc(Cl)cc4c3c(C)c2[nH]1 |  | 3.31 µM | 7.93 µM | 12.8 µM | 7.72 µM | 4.06 µM | 3.88 | 9.52 µM | 4.51 µM | > 100 |  |  | 
CC(CN1c2ccccc2Sc2ccccc21)N(C)C (stereo not drawn) |  | 30.8 µM | 15.2 µM | 34.5 µM | 58.7 µM |  | 41.6 | 33.9 µM | 36.3 µM | 40.7 |  |  | 
